Measured values as given in patent US20180117047A1, “DRUG FOR PREVENTING AND/OR TREATING DEMENTIA” (NATIONAL UNIVERSITY CORPORATION TOTTORI UNIVERSITY, priority 2015, published 2018).
“And” between values parts separate entries of the source, which are not always exact repeats. Identical values can stand only once. “Also recorded” adds a separate entry of the source.

Columns and labels:
[1] = test system: Tg(APPSWE)2576KhaTg(Prnp-MAPT*P301L)JNPL3HImc Alzheimer's disease model double transgenic mice; assay: Number and size of senile plaques in cerebrum coronal cut surfaces of Alzheimer's disease model double transgenic mice (HE, Aβ40, Aβ42 staining); assay type: in vivo, mouse
[2] = test system: Tg(APPSWE)2576KhaTg(Prnp-MAPT*P301L)JNPL3HImc Alzheimer's disease model double transgenic mice; assay: Number of nerve cells having AT8 immunostaining-positive neurofibrillary tangles in Alzheimer's disease model double transgenic mice; assay type: in vivo, mouse
[3] = individual mouse, diameter 50 μm or smaller, 5 mg/kg oral every day from one year old, sampled at 730 to 745 days old, 5 mg/kg
[4] = individual mouse, diameter 100 μm or larger, 5 mg/kg oral every day from one year old, sampled at 730 to 745 days old, 5 mg/kg
[5] = individual mouse, diameter between 50 μm and 100 μm, 5 mg/kg oral every day from one year old, sampled at 730 to 745 days old, 5 mg/kg
[6] = individual mouse, 5 mg/kg oral every day from one year old, sampled at 730 to 745 days old, 5 mg/kg

Question: Which results are given for `N#Cc1cc(-c2nc3c(O)ncnc3s2)ccc1Oc1ccccc1` [compound A, 5-(7-hydroxythiazolo[5,4-d]pyrimidin-2-yl)-2-phenoxy-benzonitrile]?
Answer: Large-sized senile plaques in the hippocampus compared with placebo control group (photographs) ([1]; HE staining, Aβ40 and Aβ42 immunostaining, FIG. 6 vs FIG. 5): clearly fewer; Number of large-sized senile plaques per one cerebrum coronal cut surface ([1]; group average±standard deviation, 4 mice, 5 mg/kg oral daily about one year, control 26.9±12.3): 11.1±5.9; Number of medium-sized senile plaques per one cerebrum coronal cut surface ([1]; group average±standard deviation, 4 mice, 5 mg/kg oral daily about one year, control 44.3±14.5): 30.9±20.5; Number of small-sized senile plaques per one cerebrum coronal cut surface ([1]; group average±standard deviation, 4 mice, 5 mg/kg oral daily about one year, control 88.3±35.2): 104.4±36.8; Number of small senile plaques, entorhinal cortex coronal cut surface [1, 3]: 96 and 78 and 110 and 164; Number of small senile plaques, mammillary body coronal cut surface [1, 3]: 113 and 38 and 106 and 130; Number of large-sized senile plaques, entorhinal cortex coronal cut surface [1, 4]: 16 and 10 and 11 and 2; Number of large-sized senile plaques, mammillary body coronal cut surface [1, 4]: 21 and 12 and 5; Number of medium-sized senile plaques, entorhinal cortex coronal cut surface [1, 5]: 78 and 24 and 31 and 14; Number of medium-sized senile plaques, mammillary body coronal cut surface [1, 5]: 33 and 12 and 25 and 30; Number of large-sized senile plaques compared with the control group ([1]; p=0.013, Mann-Whitney U test, 5 mg/kg oral daily, FIG. 7, 5 mg/kg): significantly smaller; also recorded: significantly suppresses; also recorded: especially suppressed; Number of medium-sized senile plaques compared with the control group ([1]; p=0.036, Mann-Whitney U test, 5 mg/kg oral daily, FIG. 7, 5 mg/kg): significantly smaller; also recorded: significantly suppresses; also recorded: especially suppressed; Number of small senile plaques compared with the control group ([1]; p=0.400, Mann-Whitney U test, 5 mg/kg oral daily, FIG. 7): Any significant difference was not observed; Tangle number as percentage of that of the control group ([2]; FIG. 10, 5 mg/kg oral daily): 36%; Number of nerve cells having AT8 immunostaining-positive neurofibrillary tangles per one cerebrum coronal cut surface ([2]; group average±standard deviation, 4 mice, 5 mg/kg oral daily about one year, control 209.9±46.0): 77.0±67.1; Number of nerve cells having AT8 immunostaining-positive neurofibrillary tangles, amygdaloid nucleus maximum diameter coronal cut surface [2, 6]: 103 and 175 and 13 and 18; Number of nerve cells having AT8 immunostaining-positive neurofibrillary tangles, hypothalamus coronal cut surface [2, 6]: 149 and 119 and 26 and 13; Number of nerve cells having AT8 immunostaining-positive neurofibrillary tangles compared with the control group ([2]; p=0.016, Mann-Whitney U test, amygdaloid nucleus and hypothalamus, 5 mg/kg oral daily, FIG. 9, 10, 5 mg/kg): significantly smaller; also recorded: markedly suppresses; also recorded: fewer; also recorded: significantly lower
